# In patent US11815435B2, “Beta glucan immunopharmacodynamics” (HiberCell, Inc., priority 2017, dated 2023):
# “Also recorded” adds a separate entry of the source.
# Key:
# Type in all cases: in vivo, human
# [1] = Adverse events after a single dose of IV PGG without premedication
# Description: IPD changes induced by yeast soluble β-glucan were evaluated in a Phase I healthy donor trial, which included three cohorts of 12 healthy human volunteers aged 18-65 years. In Cohort 1, subjects were administered a single dose of 4 mg/kg yeast soluble β-glucan by IV infusion over 2-3 hours. In Cohort 2, subjects were administered 4 mg/kg PGG by IV infusion over 2-3 hours once weekly for 3 weeks. Half of the subjects received premedications which included low dose corticosteroids (4 mg of dexamethasone, PO) and low-dose H1 antagonists (50 mg diphenhydramine.
# (§1) In Cohort 3, subjects received either 2 mg/kg PGG or 4 mg/kg PGG by IV infusion over 1-2 hours. The subjects were administered either dose of PGG once weekly for 2 weeks, then given a 2 week wash out (no PGG) and finally received one more dose of PGG (week 5). Adverse events and complete blood counts were evaluated. In addition, whole blood and serum was evaluated for the following at various time points post-infusion: PGG binding to immune cells (monocytes, neutrophils, B-cells, DC subsets), complement activation (C5a and Sc5b9), serum cytokine/chemokine levels, IgG ABA levels, flow cytometry of immune cells, circulating immune complex formation and Quantigene analysis of transcriptional profile. Table 1 lists each subject's pre-dose IgG ABA levels, PGG dose and whether they received premedications.
# Adverse events were evaluated for subjects after a single dose of IV PGG. Table 2 lists ABA levels and adverse events for subjects that had not received premedication prior to PGG infusion.
# [2] = tested on: IPD responses (SC5b-9, monocyte and neutrophil mobilization, MCP-1, CIC, IL-8); test: Immunopharmacodynamic (IPD) responses taken together: dose and dosing interval comparison; conditions: for IPD response: mid ABA (20-50 μg/ml) subjects
# Description: as §1
# Thus, changes in IPD responses induced by PGG administration are dependent on ABA levels.
# IPD responses were compared between subjects within subgroups administered doses of either 2 mg/kg and 4 mg/kg PGG. […] Therefore, an effective dose of PGG for Mid-ABA subjects is higher than an effective dose of PGG for High-ABA subjects. This is beneficial to High-ABA subjects because with a lower PGG dose, they will experience fewer adverse events.
# Increasing the time between soluble β-glucan doses may not only promote repeated acute IPD responses but also enhance acute IPD responses, which may increase the effectiveness of soluble β-glucan therapy. Subjects in Cohort 3, as described above, were administered a dose of PGG once weekly for 2 weeks, then given a 2 week wash out (no PGG) and finally received one more dose of PGG (week 5).
# Levels of CIC (FIG. 19), SC5b-9 (FIG. 20), neutrophil mobilization (FIG. 21), IL-8 (FIG. 22) and MCP-1 (FIG. 22) were also measured over the course of treatment. […] In some cases, acute IPD responses were only seen with the final dose—after the 2 week dosing interval. In other cases, the acute IPD responses were enhanced with the final dose. Thus, for some immunotherapies or even some individuals, increasing the amount of time between dosing with soluble β-glucan may lead to enhanced efficacy.
# [3] = tested on: MIP-1b, IP-10, IL-1 RA and I-TAC; test: Example 1: cytokine levels in the cancer subject
# Description: Cytokine levels were also measured during the immunotherapy treatment. […] In addition, less frequent dosing is more convenient and economical for the subject.
substance,measurement,setting,value
"β(1,6)-[poly-(1,3)-D-glucopyranosyl]-poly-β(1,3)-D-glucopyranose [PGG]",adverse events vs ABA level,[1]; no premedication,more adverse events occurred as ABA levels increased
same,infusion reaction-related adverse events (CARPA),[1]; no premedication,"observed in some, but not all, subjects with ABA levels>20 ug/ml"
same,Adverse Events (CTCAE grade),"[1]; subject 002, pre-dose ABA 34.4, no premedication",None
same,Adverse Events (CTCAE grade),"[1]; subject 004, pre-dose ABA 39.7, no premedication",None
same,Adverse Events (CTCAE grade),"[1]; subject 006, pre-dose ABA 127, no premedication",Gr 1 chills; also recorded: Gr 2 nausea/emesis; also recorded: Gr 2 chest pressure
same,Adverse Events (CTCAE grade),"[1]; subject 010, pre-dose ABA 177.9, no premedication",Gr 1 back pain; also recorded: Gr 2 chest pressure; also recorded: Gr 2 nausea
same,Adverse Events (CTCAE grade),"[1]; subject 016, pre-dose ABA 27.6, no premedication",Gr 1 headache
same,Adverse Events (CTCAE grade),"[1]; subject 022, pre-dose ABA 87.8, no premedication",Gr 1 chest pressure; also recorded: Gr 1 light headedness; also recorded: Gr 1 abdominal cramping; also recorded: Gr 2 myalgia
same,Adverse Events (CTCAE grade),"[1]; subject 025, pre-dose ABA 9.9, no premedication",None
same,Adverse Events (CTCAE grade),"[1]; subject 034, pre-dose ABA 68.0, no premedication",Gr 1 chest pressure; also recorded: Gr 1 warm sensation; also recorded: Gr 1 light headedness; also recorded: Gr 1 nausea; also recorded: Gr 1 hand paresthesia; also recorded: Gr 2 chills; also recorded: Gr 3 headache
same,Adverse Events (CTCAE grade),"[1]; subject 037, pre-dose ABA 10.4, no premedication",None
same,Adverse Events (CTCAE grade),"[1]; subject 039, pre-dose ABA 13.6, no premedication",Gr 1 headache; also recorded: Gr 1 drowsiness
same,Adverse Events (CTCAE grade),"[1]; subject 043, pre-dose ABA 32.6, no premedication",Gr 2 headache
same,Adverse Events (CTCAE grade),"[1]; subject 047, pre-dose ABA 33.6, no premedication",None
same,Adverse Events (CTCAE grade),"[1]; subject 055, pre-dose ABA 56.2, no premedication",Gr 1 nausea; also recorded: Gr 1 flushing; also recorded: Gr 2 chest pressure; also recorded: Gr 2 dyspnea; also recorded: Gr 2 low back pain; also recorded: Gr 2 headache (delayed); also recorded: Gr 2 back pain (delayed); also recorded: Gr 2 neck/shoulder
same,Adverse Events (CTCAE grade),"[1]; subject 057, pre-dose ABA 37.3, no premedication",Gr 1 diarrhea
same,Adverse Events (CTCAE grade),"[1]; subject 058, pre-dose ABA 34.0, elevated pre-dose CIC, no premedication",Gr 1 dysuria (delayed); also recorded: Gr 2 myalgia (delayed); also recorded: Gr 2 arthralgia
same,Adverse Events (CTCAE grade),"[1]; subject 067, pre-dose ABA 15.0, no premedication",Gr 1 LE stiffness
same,Adverse Events (CTCAE grade),"[1]; subject 068, pre-dose ABA 26.1, no premedication",None
same,Adverse Events (CTCAE grade),"[1]; subject 070, pre-dose ABA 58.7, no premedication",Gr 1 headache
same,"acute IPD responses (CIC, SC5b-9, neutrophil mobilization, IL-8, MCP-1)","[2]; Cohort 3, dosing after a 2 week dosing interval",generated or enhanced
same,changes in IPD responses,"[2]; low-ABA subjects, PGG administration",very little to no changes in responses
same,IPD response,[2]; 2 mg/kg PGG,minimal response
same,IPD response,[2]; 4 mg/kg PGG,responded much better (on par with High-ABA subjects)
same,"IPD responses, 2 mg/kg vs 4 mg/kg dose",[2]; subjects with ABA>50 μg/ml,similar
same,"cytokine levels (MIP-1b, IP-10, IL-1 RA, I-TAC)","[3]; cancer subject after conversion to High-ABA group, IMPRIME PGG 4 mg/kg once every 3 weeks",acute IPD responses were seen
same,recurrence of acute IPD responses,"[3]; cancer subject, soluble β-glucan administered once every 3 weeks (SC5b-9 and cytokines)","robust, acute IPD responses occurred with each administration"
